In ChEMBL document CHEMBL5537178, “Discovery of TP0628103: A Highly Potent and Selective MMP-7 Inhibitor with Reduced OATP-Mediated Clearance Designed by Shifting Isoelectric Points” (J Med Chem, 2024):
Starred links: 1 amine or outer side, 2 acyl side, 3 side chain; linkers in the order of their positions; H or OH if unused. Non-standard residues stand in square brackets, D forms with d. Residues, ends and D or L forms follow the SMILES beside them. *: point of attachment. Benzenesulfonyl(4-Cl,3-CF3) = O=S(=O)(c1ccc(Cl)c(C(F)(F)F)c1)*; γGlu = O=C(O)[C@H](CCC(=O)[*:2])N[*:1]; 4Pal = N[C@@H](Cc1ccncc1)C(=O)O; Tle = CC(C)(C)[C@H](N)C(=O)O; β3hP = O=C(O)C[C@@H]1CCCN1

Columns and labels:
[1] = Chemical stability of the compound in pH 4 aqueous solution assessed as degradation by measuring residual rate incubated for 24 hrs at 65 degC by HPLC analysis; type: physicochemical; conditions: read-out: Activity
[2] = Chemical stability of the compound in pH 7.4 aqueous solution assessed as degradation by measuring residual rate incubated for 24 hrs at 65 degC by HPLC analysis; type: physicochemical; conditions: read-out: Activity
[3] = Volume of distribution at steady state in CL57BL/6J mouse at 0.25 mg/kg, iv measured upto 24 hrs by LCMS/MS analysis; type: ADME, organism-based; conditions: in vivo, read-out: Vdss
[4] = Total clearance in CL57BL/6J mouse at 0.25 mg/kg, iv measured upto 24 hrs by LCMS/MS analysis; type: ADME, organism-based; conditions: in vivo
[5] = Total clearance in cynomolgus monkey at 0.25 mg/kg, iv pretreated with rifampicin 20 mg/kg, po 1 hr before; type: ADME, organism-based, Macaca fascicularis; conditions: in vivo
[6] = Urinary excretion rate in rat at 1 mg/kg, iv; type: ADME, organism-based; conditions: urine, read-out: Activity
[7] = Stability of the compound in rat liver S9 fraction; type: ADME, subcellular
[8] = Volume of distribution at steady state in cynomolgus monkey at 0.25 mg/kg, iv; type: ADME, organism-based, Macaca fascicularis; conditions: in vivo, read-out: Vdss
[9] = Total clearance in cynomolgus monkey at 0.25 mg/kg, iv; type: ADME, organism-based, Macaca fascicularis; conditions: in vivo
[10] = Volume of distribution at steady state in cynomolgus monkey at 0.25 mg/kg, iv pretreated with rifampicin 20 mg/kg, po 1 hr before; type: ADME, organism-based, Macaca fascicularis; conditions: in vivo, read-out: Vdss
[11] = Lipophilicity, logD of compound at pH 7.4; type: physicochemical; conditions: buffer

| remaining at 24 h [1] [%] | remaining at 24 h [2] [%] | SMILES | other results |
| --- | --- | --- | --- |
| 99.6 | 90.5 | CC(C)(C)[C@H](NC(=O)[C@H](Cc1ccncc1)NC(=O)CNC(=O)CC[C@H](NS(=O)(=O)c1ccc(Cl)c(C(F)(F)F)c1)C(=O)O)C(=O)Nc1ccc(C(=O)N2CCC(C(=O)N[C@H](CCCCN)C(=O)NCCN)CC2)cc1 |  |
| 97 | 96.2 | CC(C)(C)[C@H](NC(=O)[C@H](Cc1ccncc1)NC(=O)CNC(=O)CC[C@H](NS(=O)(=O)c1ccc(Cl)c(C(F)(F)F)c1)C(=O)O)C(=O)Nc1ccc(C(=O)N2CCC(C(=O)N[C@H](CCCCN)C(=O)N3C[C@@H](N)C[C@H]3C(N)=O)CC2)cc1 |  |
| 98.8 | 88.7 | CC(C)(C)[C@H](NC(=O)[C@H](Cc1ccncc1)NC(=O)CNC(=O)CC[C@H](NS(=O)(=O)c1ccc(Cl)c(C(F)(F)F)c1)C(=O)O)C(=O)Nc1ccc(C(=O)N2CCC(C(=O)N[C@H](CCCNC(=N)N)C(=O)NCCN)CC2)cc1 |  |
| 100 | 93.7 | CN(C)CCCC[C@H](NC(=O)CCN)C(=O)N1CCN(C(=O)c2ccc(NC(=O)[C@@H](NC(=O)[C@H](Cc3ccncc3)NC(=O)CNC(=O)CC[C@H](NS(=O)(=O)c3ccc(Cl)c(C(F)(F)F)c3)C(=O)O)C(C)(C)C)cc2)CC1 |  |

Continued, molecule first:

| SMILES | remaining at 24 h [1] [%] | remaining at 24 h [2] [%] | other results |
| --- | --- | --- | --- |
| CC(C)(C)[C@H](NC(=O)[C@H](Cc1ccncc1)NC(=O)CNC(=O)CC[C@H](NS(=O)(=O)c1ccc(Cl)c(C(F)(F)F)c1)C(=O)O)C(=O)Nc1ccc(C(=O)N2CCN(C(=O)[C@@H](N)CCCN)CC2)cc1 | 88.6 | 58.7 | Vd [3]: 0.185 L/kg; clearance [4]: 41.3 mL/min/kg |
| CC(C)(C)[C@H](NC(=O)[C@H](Cc1ccncc1)NC(=O)CNC(=O)CC[C@H](NS(=O)(=O)c1ccc(Cl)c(C(F)(F)F)c1)C(=O)O)C(=O)N1CCC[C@H]1CC(N)=O ({Benzenesulfonyl(4-Cl,3-CF3)-γGlu}-G[4Pal][Tle][β3hP]-NH2) |  |  | clearance [5]: 9.12 mL/min/kg; dose excreted [6]: 5%; Stability [7]: < 10%; Vd [8]: 0.283 L/kg; clearance [9]: 24.5 mL/min/kg; Vd [10]: 0.208 L/kg |
| CC(C)(C)[C@H](NC(=O)[C@H](Cc1ccncc1)NC(=O)CNC(=O)CC[C@H](NS(=O)(=O)c1ccc(Cl)c(C(F)(F)F)c1)C(=O)O)C(=O)Nc1ccc(C(=O)O)cc1 |  |  | Vd [3]: 2.48 L/kg; clearance [4]: 200 mL/min/kg |
| CC(C)c1nc(N(C)S(C)(=O)=O)nc(-c2ccc(F)cc2)c1/C=C/[C@@H](O)C[C@@H](O)CC(=O)O [ROSUVASTATIN] |  |  | logD [11]: -1.9 |
| COc1ccccc1Oc1c(NS(=O)(=O)c2ccc(C(C)(C)C)cc2)nc(-c2ncccn2)nc1OCCO [BOSENTAN] |  |  | logD [11]: 2.4 |
| CC(C)(C)[C@H](NC(=O)[C@H](Cc1ccncc1)NC(=O)CNC(=O)CC[C@H](NS(=O)(=O)c1ccc(Cl)c(C(F)(F)F)c1)C(=O)O)C(=O)Nc1ccc(C(=O)NCC2(N)CCNCC2)cc1 | 95.6 | 86.4 |  |
